Laboratory results: patent US20250250582A1, “Plant Cells and Plants Modified to Increase Herbicide Resistance and Stress Tolerance and Methods of Using the Same” (The Board of Trustees of the University of Arkansas, priority 2018, published 2025)
Values joined by “and” are separate entries in the source; they are usually repeats but may differ in a detail not shown here. Equal values may be shown once.

What was measured:
[1] = system: resistant Echinochloa species; assay: Determination of resistance level (visual injury), resistant accessions; type: in vivo, E. colona and E. crus-galli; settings: visual 3 wk after treatment
From the text: The experiment was repeated once.

[2] = system: susceptible E. colona standard; assay: Determination of resistance level (visual injury), susceptible plants; settings: 2 X dose, visual 3 wk after treatment
[3] = system: susceptible E. colona (ECO-S); assay: Herbicide resistance profile of ECO-S; type: in vivo, Echinochloa colona
From the text: Beginning in 2010, through the 2016 cropping cycle, Echinochloa spp. from throughout the rice producing counties of Arkansas, USA, located along the Mississippi River were sampled for a survey of the current status of herbicide resistance. Seeds were bulk sampled from plants that had matured in rice and soybean production fields, which had survived at least one herbicide application, were collected and sent to the University of Arkansas Altheimer Laboratory in Fayetteville for characterization and evaluation of herbicide resistance to common rice herbicides. […] From this screening program, two populations of E. colona were selected for use in this experiment. […] To establish inbred and homozygous accessions for the experiment, a single plant, verified as resistant/susceptible of ECO-R and ECO-S were grown in isolation to produce seed for further experiments.
Accession source and population profiling. From 2010 to 2016, the University of Arkansas weed physiology group has been collecting putative herbicide-resistant Echinochloa populations from rice production fields throughout the state of Arkansas. […] Collections took place in the late summer to early fall prior to rice harvest; these accessions were bulk sampled by in-field location and farm, with field histories collected when possible. […]

[4] = system: multiple-resistant E. colona (ECO-R); assay: RNA-sequencing differential gene expression, herbicide-treated vs nontreated ECO-R; settings: 24 h
From the text: Pure-line generated seed of each accession were germinated in pots containing potting soil within a temperature/light controlled growth chamber set to a 14-hr day length, 33 C day temperature, and 24 C night time to simulate environmental conditions early in the rice growing season. A single plant was maintained in each of the pots and used for the treatments; two pots were used as individual biological replicates. […] Pots for each of the respective treatments were labeled as either ECO-R/S-T for the treated samples and ECO-R/S-N for the non-treated counterpart. To minimize the effect that the sprayer may play in the application, both plants of the ECO-R and ECO-S were treated at the same time. After approximately 30 minutes, allowing for the plants to dry, the treated and non-treated plants of both accessions were moved back into the growth chamber. Precisely 24-hours after application, the aboveground portion of each of the plants were removed and immediately frozen in liquid nitrogen to cease all biological function. Samples were then transferred to RNAlater™-ICE (Invitrogen, Carlsbad CA, USA) for shipment to the Clemson University Genomics Institute (CUGI), in Clemson, South Carolina.
RNA was extracted from the young leaf tissues of both replications for the ECO-R and ECO-S, T and N samples, at Clemson University. Total RNA was extracted with a kit according to the manufactures instructions. The extracted RNA was treated with DNase (Invitrogen, Calsbad, CA, USA) to remove any DNA contamination prior to further processing. The samples were prepared for sequencing by CUGI. For library preparation, the TruSeq Stranded Total RNA kit (Illumina Inc., San Diego, CA, USA) was used according to the instructions provided by the manufacturer to produce a paired-end library for sequencing. Ribosomal RNA was removed using target-specific oligonucleotides paired with rRNA removal beads, removing all cytoplasmic and mitochondrial rRNA that may result in poor quality results. RNA was fragmented and reverse transcribed to cDNA using random primers, followed by a second strand cDNA synthesis. Each fragment is then ligated with an additional ‘A’ and an adapter for sequencing. The PCR enriched product is then used to create the final cDNA library. All samples were sequenced on an Illumina Hiseq 2500 platform housed in the Holdings Cancer Center at the Medical University of South Carolina, Charleston, SC, USA. Samples, regardless of treatments or replication were ran across three lanes to reduce sequencing errors from the equipment. The resulting data were processed by CUGI.
A de novo transcriptome was assembled from the treatments described for this experiment as well as several treatments, which included herbicides profiled in ECO-R. The treatments were applied to both ECO-R and ECO-S samples with two replications as described previously. In total, 20 individual plants, from both the ECO-R and ECO-S accessions, as well as T and NT samples, were used for the assembly. The transcriptome was assembled using the Trinity RNA-Seq pipeline (Broad Institute, Cambridge, MA, USA). Raw data were assessed for quality using FastQC (Babraham Institute, Cambridge, UK) and then processed to remove adapter sequences and low quality bases using a sliding window method. The processed data were then rerun using FastQC to ensure high quality reads. Using the TrinityRNASeq 2.2.0 software, the samples were normalized, by replication, using a coverage size of 100 and kmer of 32. The normalized reads were then assembled as transcripts and genes using Trinity with the stranded library set as the default.

CCC(=O)Nc1ccc(Cl)c(Cl)c1 [propanil]
injury of ECO187 ([1]; 2 X dose (4480 g ai/ha)): 97%
injury of resistant Echinochloa species ([1]; 2 X dose, propanil range excludes ECO187): 27-57%
susceptible plants killed [2]: 100%
tolerance observed ([3]; ECO-S (Example 1)): approximately twice
tolerance observed ([3]; ECO-S (Example 2)): ~3 × field dose
ABC transporter C family member 10 Fold Change ([4]; ECO-R-T vs ECO-R-N): 7.4 fold
ACC oxidase fold change ([4]; ECO-R-T vs ECO-R-N): −4.5 fold
ACCase 2 fold change ([4]; ECO-R-T vs ECO-R-N): −10.2 fold
ACCase fold change ([4]; ECO-R-T vs ECO-R-N): −9.7 fold
ADP sugar pyrophosphatase fold change ([4]; ECO-R-T vs ECO-R-N): −7.2 fold
Beta-glucosidase 22 fold change ([4]; ECO-R-T vs ECO-R-N): 3.6 fold
CYP72A11 Fold Change ([4]; ECO-R-T vs ECO-R-N): 3.1 fold
CYP72A13 Fold Change ([4]; ECO-R-T vs ECO-R-N): 3.8 fold
CYP72A15 Fold Change ([4]; ECO-R-T vs ECO-R-N): 2.6 fold and 3.4 fold and 2.9 fold
CYP89A2 Fold Change ([4]; ECO-R-T vs ECO-R-N): 2.5 fold and 3.8 fold and 3.6 fold
CYP709B1 Fold Change ([4]; ECO-R-T vs ECO-R-N): 7.0 fold
ERF7 fold change ([4]; ECO-R-T vs ECO-R-N): 6.7 fold
ERF060 fold change ([4]; ECO-R-T vs ECO-R-N): 2.1 fold
GST23 Fold Change ([4]; ECO-R-T vs ECO-R-N): 6.7 fold
GSTU17 fold change ([4]; ECO-R-T vs ECO-R-N): 7.9 fold
NADH-cytochrome b5 reductase proteins fold change ([4]; ECO-R-T vs ECO-R-N): < −7.4 fold
NADP-dependent malic enzyme fold change ([4]; ECO-R-T vs ECO-R-N): −9.3 fold
Stress enhanced protein 2 fold change ([4]; ECO-R-T vs ECO-R-N): 2.5 fold
UGT73C2 Fold Change ([4]; ECO-R-T vs ECO-R-N): 4.7 fold
UGT73D1 fold change ([4]; ECO-R-T vs ECO-R-N): 5.3 fold and 6.9 fold and 4.8 fold
UGT73E1 fold change ([4]; ECO-R-T vs ECO-R-N): 3.0 fold
UGT74G1 Fold Change ([4]; ECO-R-T vs ECO-R-N): 4.6 fold and 4.5 fold
UGT75D1 fold change ([4]; ECO-R-T vs ECO-R-N): 7.4 fold
UGT83A1 Fold Change ([4]; ECO-R-T vs ECO-R-N): 2.3 fold
acetyl-coenzyme A synthetase fold change ([4]; ECO-R-T vs ECO-R-N): −8.4 fold
disease resistance protein RPM1 fold change ([4]; ECO-R-T vs ECO-R-N): 7.1 fold
ferredoxin 6 fold change ([4]; ECO-R-T vs ECO-R-N): < −2.4 fold
fructose-1,6-bisphosphatase fold change ([4]; ECO-R-T vs ECO-R-N): −9.3 fold
glutamine synthetase fold change ([4]; ECO-R-T vs ECO-R-N): −10.5 fold
malate dehydrogenase fold change ([4]; ECO-R-T vs ECO-R-N): −10.8 fold
peroxidase 5 fold change ([4]; ECO-R-T vs ECO-R-N): −3.1 fold
phenolic glucoside malonyltransferase 1 fold change ([4]; ECO-R-T vs ECO-R-N): −3.5 fold
pyruvate dehydrogenase E1 subunit fold change ([4]; ECO-R-T vs ECO-R-N): < −10.4 fold
pyruvate phosphate dikinase fold change ([4]; ECO-R-T vs ECO-R-N): −12 fold
ubiquinol cytochrome-c reductase complex core protein fold change ([4]; ECO-R-T vs ECO-R-N): < −8.6 fold
ATP synthase subunit(s) fold change ([4]; ECO-R-T vs ECO-R-N, repressed): < −10 fold
TPS6 repression ([4]; ECO-R-T vs ECO-R-N, repressed): 6.1 fold
sugar transporter ERD6-like 8 repression ([4]; ECO-R-T vs ECO-R-N, repressed): 4.2 fold
sugar transporter SWEET2a repression ([4]; ECO-R-T vs ECO-R-N, repressed): 3.8 fold
heat shock proteins fold change ([4]; ECO-R-T vs ECO-R-N, repressed by as much as): ≤ −9.9 fold
CYP72A14 fold induction ([4]; Echinochloa colona, in vivo): ~3 fold
